Assay results published in patent publication US7087722B1, “Fibrin binding domain polypeptides and uses and methods of producing same” (Savient Pharmaceuticals, Inc., priority 1988, dated 2006).

Experiments:
[1] = test system: clotting of citrated healthy human plasma by thrombin; experiment: Plasma Thrombin Time (TT), clotting of citrated healthy human plasma; assay type: biochemical; details: 1 mM spermidine; for "TT" Values (%): no addition: 100
Experimental: The effect of the r31 kD polypeptide on clotting of whole blood was measured using the clinical laboratory parameter defined as Thrombin-Time. In this reaction aliquots of 100 μl citrated healthy human plasma were mixed with 100 μl PBS and either the transglutaminase inhibitor spermidine, or with reduced-carboxyamidated p31 kD or reoxidized-refolded r31 kD. 200 μl thrombin solution was added to each aliquot while continuously mixing. The time from the addition of the thrombin to the formation of clot was measured, and is expressed as “TT” in seconds (Table B).

[2] = target: T1, guinea-pig liver transglutaminase (Sigma) (UniProt P08587); experiment: Binding of 125I-r31 kD FBD to extracellular matrix (ECM) of endothelial cells in the presence of exogenous transglutaminase; assay type: biochemical; details: 0.3 μM 125I-r31 kD FBD; 3 mM CaCl2; 0.02 units/ml transglutaminase; 45 minutes
T1 construct: purchased Sigma; host or cells: guinea-pig liver
T1 sequence (P08587 2-690): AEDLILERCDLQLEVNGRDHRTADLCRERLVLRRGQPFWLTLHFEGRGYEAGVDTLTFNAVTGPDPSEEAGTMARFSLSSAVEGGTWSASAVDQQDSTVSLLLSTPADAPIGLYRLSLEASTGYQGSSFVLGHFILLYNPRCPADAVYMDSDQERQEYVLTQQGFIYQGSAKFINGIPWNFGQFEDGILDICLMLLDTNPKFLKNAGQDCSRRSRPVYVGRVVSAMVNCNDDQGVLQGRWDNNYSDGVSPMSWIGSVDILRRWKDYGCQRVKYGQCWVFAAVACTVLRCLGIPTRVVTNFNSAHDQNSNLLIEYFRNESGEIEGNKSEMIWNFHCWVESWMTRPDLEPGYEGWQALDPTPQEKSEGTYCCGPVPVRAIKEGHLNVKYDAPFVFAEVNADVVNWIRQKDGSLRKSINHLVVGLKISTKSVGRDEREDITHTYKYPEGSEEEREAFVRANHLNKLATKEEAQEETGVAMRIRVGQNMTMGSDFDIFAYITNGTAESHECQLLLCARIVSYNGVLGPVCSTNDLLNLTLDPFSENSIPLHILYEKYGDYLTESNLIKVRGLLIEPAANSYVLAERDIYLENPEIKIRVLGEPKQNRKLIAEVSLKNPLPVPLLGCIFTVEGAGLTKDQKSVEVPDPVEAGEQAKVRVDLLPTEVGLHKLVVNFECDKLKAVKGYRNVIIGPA
Experimental: FIG. 51. Binding of ^125I-r31 kD FBD to ECM in the presence of various constituents
0.3 μM of ^125I-r31 kD FBD was incubated with extracellular matrix of endothelial cells (ECM) as described by Eld r et al. (20) in a 37° C. CO2-incubator in the presence of saline, 3 mM CaCl2 and 0.02 units/ml of guinea-pig liver transglutaminase (TG) and other constituents as indicated in the figure. The control was done in the absence of transglutaminase.
The reactions were terminated after 45 minutes by washing five times with PBS. Plates were extracted with a solution of 0.5% SDS and aliquots of the extracted material were measured in a gamma counter.
The binding was now further characterized by examination of the binding of 0.3 μM ^125I-r31 kD FBD to ECM in the presence and absence of exogenous transglutaminase; additionally the binding in the presence of transglutaminase was examined in the presence of each of heparin, fibronectin or spermidine.

SMILES: NCCCCNCCCN [spermidine]
- "TT" Values (\) ([1]; thrombin conc. 1.25 (μ/ml)): 105
- "TT" Values ([1]; thrombin conc. 1.25 (μ/ml), no addition: 55.4): 114 s
- "TT" Values (%) ([1]; thrombin conc. 1.25 (μ/ml)): 205%
- "TT" Values (\) ([1]; thrombin conc. 2.5 (μ/ml)): 72
- "TT" Values ([1]; thrombin conc. 2.5 (μ/ml), no addition: 25.5): 44 s
- "TT" Values (%) ([1]; thrombin conc. 2.5 (μ/ml)): 172%
- effect on binding of r31 kD FBD to ECM in the presence of transglutaminase [2]: inhibits the binding
